This is an account of results in PubChem BioAssay (NCI).

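Cultured in 96-well plates, cells were exposed to test compound for 48 hours across five concentrations. GI50 marks 50% less growth. Definition used: TGI = concentration required for complete inhibition of growth.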

The first assay deals with 786-0 renal. As to the kind of experiment: NCI anticancer screen, dose series, 48 h.
For `COc1ccc(-c2nnc(COc3ccc(C(=O)/C=C/c4ccco4)cc3)o2)cc1`, the GI50 was 1.89 µM and the TGI is 3.65 µM.

In the case of `Cc1ccccc1S(=O)(=O)OC1NS(=O)(=O)c2ccccc21` (configuration not stated), the TGI was greater than 100 µM.

As for `COc1cc2c3c(n(C)c(=O)c2cc1OC)-c1cc2c(cc1/C3=C\CCCN)OCO2`, the GI50 was 1.23 µM and the TGI amounted to 5.02 µM.

`Cc1ccc(S(=O)(=O)Nc2ccccc2C(=O)c2ccc(C)c(C)c2)cc1` returned a TGI greater than 100 µM.

As for `OC(c1nc2ccccc2[nH]1)C(O)C(O)C(O)c1nc2ccccc2[nH]1` (configuration not stated), the TGI is greater than 100 µM.

For the compound `COc1cc2c3c(n(C)c(=O)c2cc1OC)-c1cc2c(cc1/C3=C\CCN)OCO2`, the GI50 was 0.132 µM and the TGI is 6.21 µM.

The subject of another assay is PC-3 prostate. The assay can be described thus: NCI anticancer screen, dose series, 48 h.
In the case of `CN(C(=O)c1ccc(C(F)(F)F)cc1)c1ccc(Oc2ccc3c(c2)cc(C(=O)N2CCN(Cc4ccc(OC(F)F)cc4)CC2)n3C)nc1`, the GI50 was 2.24 µM and the TGI is greater than 100 µM.

In the case of `Cc1cc(-c2ccc3nc(C4CCOCC4)n(CCOC(F)(F)F)c3c2)cn(C)c1=O`, the GI50 was 1.04 µM.

As to `COc1cc(/C=C2\CN(S(=O)(=O)c3ccccc3)C/C(=C\c3cc(CN4CCCC4)c(O)c(OC)c3)C2=O)cc(CN2CCCC2)c1O`, the GI50 was 1.41 µM and the TGI was determined as 3.91 µM.

In the case of `CN1CCN(CCCn2c(=O)c3sc4ncccc4c3n3nnc(-c4ccccc4)c23)CC1`, the GI50 was 6.27 µM and the TGI was 13.4 µM.

Compound `NC1(C(=O)OCc2ccccc2)CCCC1` displayed a TGI greater than 100 µM.

Turning to `O=C(/C=C/c1ccc(Cl)cc1)c1ccc(Nc2ccnc3cc(Cl)ccc23)cc1`, the GI50 is greater than 53.6 µM and the TGI was greater than 100 µM.

Consider `CCCCCCCC(=O)SCC/C=C/[C@@H]1CC(=O)NCc2cc(ccn2)C2=N[C@@](C)(CS2)C(=O)N[C@@H](C(C)C)C(=O)O1`, for which the GI50 is 0.0124 µM and the TGI is greater than 33.3 µM.

In turn, `COc1cc(C2c3cc4c(cc3OC(C)(O)C2C)OCO4)cc(OC)c1OC` (configuration not stated) registered a TGI greater than 100 µM.

Consider `N#CC(C#N)=CNC(N)=S`, for which the TGI is greater than 100 µM.

Turning to `C[C@@H]1CCC2[C@@H](C)[C@@H](OCC(CO[C@H]3OC4O[C@@]5(C)CC[C@H]6[C@H](C)CCC([C@H]3C)[C@@]46OO5)OC(=O)CCC(=O)O)OC3O[C@@]4(C)CC[C@@H]1[C@]32OO4` (some centres not stated), the GI50 is less than 0.01 µM and the TGI amounted to 14.7 µM.

As for `O=C1OC(O)[C@@H]2[C@H]1[C@H]1CC[C@@H]2O1` (some centres not stated), the GI50 is greater than 100 µM and the TGI was greater than 100 µM.

On to `O=C1c2cc3c(cc2-c2c1c1ccc(F)cc1c(=O)n2CCCNCCO)OCO3`, for which the GI50 is 0.144 µM and the TGI came out at 1.47 µM.

For `C=C1C(=O)O[C@H]2[C@H]1CC/C(COC(=O)c1c[nH]c3ccccc13)=C\CC[C@@]1(C)O[C@@H]21`, the GI50 was 0.384 µM and the TGI was determined as 2.03 µM.

`CC(=O)[C@@]12O[C@@H]1CC1C3CCC4=CC(O)CCC4(C)C3CCC12C` (some centres not stated): the GI50 is 40.3 µM and the TGI is greater than 100 µM.

As for `CCN1CCN(c2nc(C)cc(N(CCNc3ccnc4cc(Cl)ccc34)Cc3ccc4c(c3)OCO4)n2)CC1`, the GI50 is 3.22 µM and the TGI stood at 13.4 µM.

Take `COc1ccc(-c2nnc(COc3ccc(C(=O)/C=C/c4ccco4)cc3)o2)cc1`: the GI50 was 3.33 µM and the TGI stood at 11.8 µM.

`Cc1ccccc1S(=O)(=O)OC1NS(=O)(=O)c2ccccc21` (configuration not stated) returned a TGI greater than 100 µM.

Regarding `COc1cc2c3c(n(C)c(=O)c2cc1OC)-c1cc2c(cc1/C3=C\CCCN)OCO2`, the GI50 was 3.31 µM and the TGI stood at 31.9 µM.

Consider `Cc1ccc(S(=O)(=O)Nc2ccccc2C(=O)c2ccc(C)c(C)c2)cc1`, for which the TGI is greater than 100 µM.

The compound `OC(c1nc2ccccc2[nH]1)C(O)C(O)C(O)c1nc2ccccc2[nH]1` (configuration not stated) gave a TGI greater than 100 µM.

With `COc1cc2c3c(n(C)c(=O)c2cc1OC)-c1cc2c(cc1/C3=C\CCN)OCO2`, the GI50 is 0.324 µM and the TGI turned out to be 2.94 µM.

In another assay the test system is HS 578T breast. As to the kind of experiment: NCI anticancer screen, dose series, 48 h.
Turning to `CN(C(=O)c1ccc(C(F)(F)F)cc1)c1ccc(Oc2ccc3c(c2)cc(C(=O)N2CCN(Cc4ccc(OC(F)F)cc4)CC2)n3C)nc1`, the GI50 was greater than 91.5 µM and the TGI is greater than 100 µM.

Take `Cc1cc(-c2ccc3nc(C4CCOCC4)n(CCOC(F)(F)F)c3c2)cn(C)c1=O`: the TGI was 0.888 µM.

Consider `COc1cc(/C=C2\CN(S(=O)(=O)c3ccccc3)C/C(=C\c3cc(CN4CCCC4)c(O)c(OC)c3)C2=O)cc(CN2CCCC2)c1O`, for which the GI50 is 2.52 µM and the TGI was found to be 7.22 µM.

Take `CN1CCN(CCCn2c(=O)c3sc4ncccc4c3n3nnc(-c4ccccc4)c23)CC1`: the GI50 is 6.47 µM and the TGI is 16 µM.

`NC1(C(=O)OCc2ccccc2)CCCC1` displayed a TGI of 79.7 µM.

In the case of `O=C(/C=C/c1ccc(Cl)cc1)c1ccc(Nc2ccnc3cc(Cl)ccc23)cc1`, the GI50 is 36.3 µM and the TGI was greater than 100 µM.

Regarding `CCCCCCCC(=O)SCC/C=C/[C@@H]1CC(=O)NCc2cc(ccn2)C2=N[C@@](C)(CS2)C(=O)N[C@@H](C(C)C)C(=O)O1`, the GI50 was 0.00745 µM and the TGI turned out to be 0.203 µM.

`COc1cc(C2c3cc4c(cc3OC(C)(O)C2C)OCO4)cc(OC)c1OC` (configuration not stated) displayed a TGI greater than 100 µM.

Consider `N#CC(C#N)=CNC(N)=S`, for which the TGI was greater than 100 µM.

Turning to `C[C@@H]1CCC2[C@@H](C)[C@@H](OCC(CO[C@H]3OC4O[C@@]5(C)CC[C@H]6[C@H](C)CCC([C@H]3C)[C@@]46OO5)OC(=O)CCC(=O)O)OC3O[C@@]4(C)CC[C@@H]1[C@]32OO4` (some centres not stated), the GI50 is 1.81 µM and the TGI came to 34.9 µM.

Turning to `COc1cc(OC)cc(-c2cc(=O)c3c(OC)c(OC)c(OC)c(OC)c3o2)c1`, the TGI was determined as 90.6 µM.

On to `O=C1OC(O)[C@@H]2[C@H]1[C@H]1CC[C@@H]2O1` (some centres not stated), for which the GI50 was greater than 100 µM and the TGI was greater than 100 µM.

On to `O=C1c2cc3c(cc2-c2c1c1ccc(F)cc1c(=O)n2CCCNCCO)OCO3`, for which the GI50 was 0.381 µM and the TGI came to 2.68 µM.

For the compound `C=C1C(=O)O[C@H]2[C@H]1CC/C(COC(=O)c1c[nH]c3ccccc13)=C\CC[C@@]1(C)O[C@@H]21`, the GI50 was 0.613 µM and the TGI amounted to 6.83 µM.
